Experimental findings from article PMC9096233, “Identification of an Au(I) N-Heterocyclic Carbene Compound as a Bactericidal Agent Against Pseudomonas aeruginosa” (Frontiers in Chemistry, 2022) are described below.

In data set [1] the test system is P. aeruginosa PAO1. As to the kind of experiment: Mouse skin wound infection model. Format: in vivo. On the procedure:
Six-week-old female BALB/c mice were used for animal experiments to evaluate the healing effect of infected wounds in vivo. Briefly, mouse backs were cut to generate a circular wound (diameter 0.6 cm) with a hole punch and the wound was infiltrated using a medical cotton swab with P. aureginosa (overnight culture, OD600 = 0.3). The mice were randomly divided into three groups, including PBS, auranofin, and Au-1 groups (n = 5 in each group). The drugs were dissolved in DMSO and diluted with glycerol to a final concentration of 50 μM. After the bacterial fluid was dry, about 20 μL of the drug was added to the wound. Body weights and wound photography was recorded on days 0, 1, 3, 5, and 8. And on the 8th day, the mice were euthanized by chloral hydrate, the infectious tissues in all groups were collected and cultured into the LB plate for colony counting. The skin tissues were also fixed by paraformaldehyde solution (4%) for H&E, Gram, and Masson’s trichrome staining.
The above results promoted us to further investigate whether the Au1 compound was also efficacious in an in vivo animal infection model. To this end, we used a mouse wound infection model to assess the anti-P. aeruginosa efficacy of Au1 as described previously ([Liao et al., 2017b]). In brief, a circular wound with a diameter of 6 mm was created on the flank of mice, and approximately 5 × 10^8 CFU of P. aeruginosa PAO1 were dipped onto the wound by medical cotton swab to induce infection. Treatment is administered on the 1st day with auranofin or Au1 compound (50 μM, 20 μL) was applied to the wounds. The wound sizes and mice weights were recorded each day. On the 8th day, the infection sites were excised and part of the tissues was fixed in 4% paraformaldehyde and embedded in paraffin. Four-micrometer sections were cut, stained with Gram, H&E, and Masson’s trichrome stain. The remained tissues were homogenized and serially diluted for CFU quantification (Figure 6A).

Data set [2] relates to pyoverdine. As to the kind of experiment: Quantification of secreted pyoverdine. Format: cell-based, Pseudomonas aeruginosa. Conditions: 15 μM; 24 h. On the procedure:
(§1) To quantify the secreted virulence factors, overnight P. aeruginosa PAO1 was diluted in fresh M9 medium and cultured to a final OD600 value of 0.15. Then Au1 or auranofin were added into culture with indicated concentrations. After 24 h incubation at 37°C, the bacterial supernatants were collected by centrifugation at 4,000 g for 10 min at 4°C and filtered using a 0.22 μm syringe filter (Millipore). The secreted virulence factors in the supernatant were quantified by the methods described below.

In data set [3] the test system is P. aeruginosa biofilm. The experiment in a line: Biofilm inhibition, crystal violet. The data set is classed as cell-based, Pseudomonas aeruginosa. Conditions: 48 h static incubation. As to the method: P. aeruginosa was cultured in 24-well microtiter plate (Corning, NY, United States) for static biofilm formation. For biofilm inhibition assay, approximately 1 ml of bacterial overnight culture were diluted in fresh M9 medium with a final OD600 value of 0.33 and transferred into each well of microtiter plate in the absence or presence of sub-lethal concentration of Au1 or auranofin (2.5, 10, and 15 μM). After static incubation at 37°C for 48 h, weakly adherent planktonic cells were removed from the microtiter plate by washing with phosphate buffered saline (PBS) for three times gently. The adherent biofilms were dried and stained with 0.1% (w/v) crystal violet for 15 min. Excess dye was removed by rinsing the plate three times with PBS. Crystal violet was solubilized from the stained biofilms by adding 30% acetic acid and the biofilms were quantified by measuring the 595 nm absorbance. Each experiment was performed in triplicates.

Data set [4] relates to P. aeruginosa. As to the kind of experiment: Bacterial growth curves. The data set is classed as cell-based, Pseudomonas aeruginosa. The conditions noted are these: growth curves. As to the method: Pseudomonas aeruginosa strain PAO1 (P. aeruginosa) was grown in M9 minimal medium (1.0 g/L NH4Cl, 0.5 g/L NaCl, 6.0 g/L Na2HPO4, 3.0 g/L KH2PO4) supplemented with 1.0 mM MgSO4, 1.0 mM ZnSO4, 0.2 mM CaCl2, 0.4% (w/v) glucose and 0.2% (w/v) casein hydrolysate. Gram-negative Escherichia coli strain K-12 (E. coli) and Burkholderia cepacia J2315 (B. cepacia) were cultured in Luria-Bertani (LB) medium (5 g/L yeast extract, 10 g/L tryptone, 10 g/L sodium chloride). The Gram-positive Staphylococcus aureus strain Newman (S. aureus) was grown in Tryptic Soy Broth (TSB) medium (17 g/L Tryptone, 3 g/L Phytone, 5 g/L sodium chloride, 2.5 g/L dipotassium phosphate and glucose 2.5 g/L).

Data set [5] relates to lung carcinoma A549 cell. The experiment in a line: MTT cytotoxicity assay. Format: cell-based, Human. The conditions noted are these: 48 h. On the procedure: The cytotoxicity of gold compounds to mammalian cells was measured using the 3-(4, 5-dimethylthiazol-2-yl)-2, 5-diphenyltetrazolium bromide (MTT) assay. Human hepatocyte L-O2 cell, and lung carcinoma A549 cell were cultured in Corning 96 well microplates (10^4 cells per well) at 37°C for 18 h. Then the cells were incubated with gradient concentrations of gold compounds at 37°C for another 48 h. After the treatment, cell culture media were removed and the plates were wash with PBS for three times. And 90 μL fresh media and 10 μL 5 mg/ml MTT solution were added to each well and further incubated at 37°C for 4 h. Subsequently, the media were removed from the wells and 150 μL DMSO was added into each well to dissolve the formazan crystals. The absorbance at 490 nm of each well was measured with a micro-plate reader. The experiments were carried out in triplicates.

The test system of data set [6] is P. aeruginosa. As to the kind of experiment: Drug resistance development assay (serial passage). The data set is classed as cell-based, Pseudomonas aeruginosa. The conditions noted are these: serial passage at sub-lethal concentrations over 14 days. As to the method: Development of resistance to the Au1 compound and the antibiotics (ciprofloxacin and tobramycin) were assessed as described by [Habets and Brockhurst (2012)]. The MIC assay was performed on the first day as described above. […] Thereafter, a new passage MIC measurement assay was prepared using diluted bacterial cells grown at 0.5-fold MIC suspension. This was repeated for 14 passages and the MIC values for Au1, ciprofloxacin and tobramycin were recorded for each passage.

For data set [7], the system named is rhamnolipid. The experiment in a line: Rhamnolipid measurement (anthrone). The conditions noted are these: 15 μM. Format: cell-based, Pseudomonas aeruginosa. On the procedure: as §1
For rhamnolipid measurement, rhamnolipid was extracted from the supernatant with a mixture of chloroform and methanol (v:v = 2:1). The organic solvent phase was then evaporated to dryness and 100 μL methanol was added to dissolve the extracted rhamnolipid. Then 200 μL of pre-cooled anthrone solution (dissolving 2 g of anthrone in 1 L of concentrated H2SO4) was added into 20 μL extracted rhamnolipid sample and heat at 80°C for 30min. The rhamnolipid concentration was determined by measurement the absorbance at 630 nm.

Data set [8] has as its system LasA protease. As to the kind of experiment: LasA protease detection (azocasein). The conditions noted are these: 15 μM; 24 h. Format: cell-based, Pseudomonas aeruginosa. As to the method: as §1
For LasA protease detection, 5 μL of filtered supernatant was mixed with 1 ml of 0.5% azocasein (Sigma-Aldrich) in reaction buffer (50 mM Tris-HCl, 0.5 mM CaCl2, pH 7.5). The mixture was incubated at 37°C for 15 min. After reaction, 500 μL of 10% trichloroacetic (TCI Shanghai) acid was added and incubated for 30 min at room temperature. After centrifugation at 10,000 g for 20 min, the 440 nm absorbance of the collected supernatant was measured to quantify the secreted LasA protease.

What is called IC50 is the concentration that gives 50% inhibition. The low end stands for higher potency, the high end for lower potency. Take NHC^Me-Au-Cl [Au1]: the “state of infected wound” value in data set [1] (50 μM, 20 μL on wound, 8th day) is “almost completely recovered”. The “toxicity to the mice (mice weights)” value in data set [1] (50 μM, 20 μL on wound, 8 days) is listed as “no significant toxicity”. Moreover, the wound healing rate entry in data set [1] (50 μM, 20 μL on wound, vs auranofin-treated or control group) is on record as “much faster”. In addition, the “bacteria in wound tissue (Gram staining)” value in data set [1] (8th day) is reported as “no bacteria was observed”. In data set [1] (8th day, CFU, compared to control group), the “reduction of live bacteria in the infection sites” value came to 90%. In data set [2], the “decrease of pyoverdine siderophore secretion” value turned out to be 50%. Also, the “lowest concentration sufficient to inhibit biofilm formation” value in data set [3] was determined as 2.5 µM. For the same substance, the “concentration at which P. aeruginosa growth was completely inhibited” value in data set [4] is 20 µM. Further, the IC50 in data set [5] amounted to 32.8 ± 1.6 µM. Moreover, the development of resistance entry in data set [6] was “not observed”. Besides, the synthesis of rhamnolipid result in data set [7] is reported as “significantly suppress”. Moreover, the “decrease of LasA protease secretion” value in data set [8] worked out at 54%.
